US20250171438A1 (Agios Pharmaceuticals, Inc., priority 2022, published 2025)

What follows are molecules tested against T1, human PAH with the R408W mutation (Homo sapiens, UniProt P00439, R408W) (assay: Cell Based Phenylalanine Flux Assay). Conditions: A375 cells expressing human R408W PAH; 24 hrs compound incubation; 13C-Tyrosine by LC-MS; average where tested multiple times; read-out: AC50.
T1 construct: expressed in transfected cells
T1 sequence (P00439 1-452 R408W): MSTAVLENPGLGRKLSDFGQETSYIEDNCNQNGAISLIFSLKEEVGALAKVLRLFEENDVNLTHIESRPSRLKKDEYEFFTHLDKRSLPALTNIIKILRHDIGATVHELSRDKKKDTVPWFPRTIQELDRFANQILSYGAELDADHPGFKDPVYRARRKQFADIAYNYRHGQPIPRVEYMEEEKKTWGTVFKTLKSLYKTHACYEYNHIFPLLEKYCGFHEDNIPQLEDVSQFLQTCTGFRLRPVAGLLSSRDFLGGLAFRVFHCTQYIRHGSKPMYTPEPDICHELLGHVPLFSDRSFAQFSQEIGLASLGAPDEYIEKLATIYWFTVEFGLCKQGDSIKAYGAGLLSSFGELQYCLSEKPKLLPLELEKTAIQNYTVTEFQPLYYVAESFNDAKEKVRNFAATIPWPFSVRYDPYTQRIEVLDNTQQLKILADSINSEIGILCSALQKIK

Compound | AC50 [nM]
CC(C)(O)c1ncc(C(=O)N2CC3(CC3)c3[nH]cnc3[C@H]2c2nc3ccccc3s2)o1 [Example 1677, (S)-(4′-(benzo[d]thiazol-2-yl)spiro[cyclopropane-1,7′-imidazo[4,5-c]pyridin]-5′(1′H,4′H,6′H)-yl)(2-(2-hydroxypropan-2-yl)oxazol-5-yl)methanone] | 500 to 1000
Cc1nnc(C(=O)N2CCc3[nH]cnc3[C@H]2c2nc3cccc(F)c3s2)s1 [Example 1331, (S)-(4-(7-fluorobenzo[d]thiazol-2-yl)-6,7-dihydro-1H-imidazo[4,5-c]pyridin-5(4H)-yl)(5-methyl-1,3,4-thiadiazol-2-yl)methanone] | 500 to 1000
CC(C)(C)c1ncc(C(=O)N2CCc3[nH]cnc3[C@@H]2c2nc3c(F)cccc3s2)o1 [Example 1429, (R)-(2-(tert-butyl)oxazol-5-yl)(4-(4-fluorobenzo[d]thiazol-2-yl)-6,7-dihydro-1H-imidazo[4,5-c]pyridin-5(4H)-yl)methanone] | 500 to 1000
O=C(c1cnc(-c2c(F)cccc2F)s1)N1CCc2[nH]cnc2[C@H]1c1nc2c(F)cccc2s1 [Example 1504] | < 500
O=C(c1cnc(-c2ccccc2)o1)N1CCc2[nH]cnc2[C@@H]1c1nc2ccccc2s1 [Example 1208, (R)-(4-(benzo[d]thiazol-2-yl)-6,7-dihydro-1H-imidazo[4,5-c]pyridin-5(4H)-yl)(2-phenyloxazol-5-yl)methanone] | 1000 to 5000
O=C(N1CCc2[nH]cnc2[C@@H]1c1nc2ccccc2s1)C(F)(F)C1(O)CCC1 [Example 1688, (R)-1-(4-(benzo[d]thiazol-2-yl)-6,7-dihydro-1H-imidazo[4,5-c]pyridin-5(4H)-yl)-2,2-difluoro-2-(1-hydroxycyclobutyl)ethanone] | 1000 to 5000
Fc1ccc(-c2nnc(N3CCc4[nH]cnc4[C@@H]3c3nc4ccccc4s3)o2)cc1 [Example 1492, (R)-2-(4-(benzo[d]thiazol-2-yl)-6,7-dihydro-1H-imidazo[4,5-c]pyridin-5(4H)-yl)-5-(4-fluorophenyl)-1,3,4-oxadiazole] | 500 to 1000
O=C(c1ncc(Cl)s1)N1CCc2[nH]cnc2[C@@H]1c1nc2ccccc2[nH]1 [Example 920, (R)-(4-(1H-benzo[d]imidazol-2-yl)-6,7-dihydro-1H-imidazo[4,5-c]pyridin-5(4H)-yl)(5-chlorothiazol-2-yl)methanone] | > 5000
O=C(c1ccon1)N1CCc2[nH]cnc2[C@@H]1c1nc2ccc(Br)cc2[nH]1 [Example 982, (R)-(4-(6-bromo-1H-benzo[d]imidazol-2-yl)-6,7-dihydro-1H-imidazo[4,5-c]pyridin-5(4H)-yl)(isoxazol-3-yl)methanone] | 1000 to 5000
O=C(c1ncco1)N1CCc2[nH]cnc2[C@H]1c1nc2cccc(F)c2s1 [Example 1279, (S)-(4-(7-fluorobenzo[d]thiazol-2-yl)-6,7-dihydro-1H-imidazo[4,5-c]pyridin-5(4H)-yl)(oxazol-2-yl)methanone] | 1000 to 5000
O=C(c1ocnc1C(F)(F)F)N1CC2(CC2)c2[nH]cnc2[C@H]1c1nc2ccccc2s1 [Example 1668, (S)-(4′-(benzo[d]thiazol-2-yl)spiro[cyclopropane-1,7′-imidazo[4,5-c]pyridin]-5′(1′H,4′H,6′H)-yl)(4-(trifluoromethyl)oxazol-5-yl)methanone] | < 500
O=C(c1cncs1)N1CCc2[nH]cnc2[C@H]1c1nc2cc(F)ccc2s1 [Example 1193, (S)-(4-(5-fluorobenzo[d]thiazol-2-yl)-6,7-dihydro-1H-imidazo[4,5-c]pyridin-5(4H)-yl)(thiazol-5-yl)methanone] | 1000 to 5000
CC(C)n1ncc(C(=O)N2CCc3[nH]cnc3[C@@H]2c2nc3c(F)cccc3s2)c1Cl [Example 1952, (R)-(5-chloro-1-isopropyl-1H-pyrazol-4-yl)(4-(4-fluorobenzo[d]thiazol-2-yl)-6,7-dihydro-1H-imidazo[4,5-c]pyridin-5(4H)-yl)methanone] | 1000 to 5000
Cn1nncc1C(=O)N1CCc2[nH]cnc2[C@@H]1c1nc2c(F)cccc2s1 [Example 1726, (R)-(4-(4-fluorobenzo[d]thiazol-2-yl)-6,7-dihydro-1H-imidazo[4,5-c]pyridin-5(4H)-yl)(1-methyl-1H-1,2,3-triazol-5-yl)methanone] | 1000 to 5000
Cn1ncc(-c2ncc(C(=O)N3CCc4[nH]cnc4[C@@H]3c3nc4ccccc4s3)s2)c1C(F)(F)F [Example 1408, (R)-(4-(benzo[d]thiazol-2-yl)-6,7-dihydro-1H-imidazo[4,5-c]pyridin-5(4H)-yl)(2-(1-methyl-5-(trifluoromethyl)-1H-pyrazol-4-yl)thiazol-5-yl)methanone] | 1000 to 5000
O=C(c1cnn2ccc(Br)cc12)N1CCc2[nH]cnc2[C@@H]1c1nc2ccccc2s1 [Example 1048, (R)-(4-(benzo[d]thiazol-2-yl)-6,7-dihydro-1H-imidazo[4,5-c]pyridin-5(4H)-yl)(5-bromopyrazolo[1,5-a]pyridin-3-yl)methanone] | 1000 to 5000
O=C(CCC1CC1)N1CCc2[nH]cnc2[C@H]1c1nc2ccc(F)cc2[nH]1 [Example 962, (S)-3-cyclopropyl-1-(4-(6-fluoro-1H-benzo[d]imidazol-2-yl)-6,7-dihydro-1H-imidazo[4,5-c]pyridin-5(4H)-yl)propan-1-one] | < 500
O=C(c1oc(N2CCOCC2)nc1C(F)F)N1CCc2[nH]cnc2[C@@H]1c1nc2c(F)cccc2s1 [Example 2026, (R)-(4-(difluoromethyl)-2-morpholinooxazol-5-yl)(4-(4-fluorobenzo[d]thiazol-2-yl)-6,7-dihydro-1H-imidazo[4,5-c]pyridin-5(4H)-yl)methanone] | 1000 to 5000
O=C(c1nnc(-c2ccc(F)cc2F)o1)N1CCc2[nH]cnc2[C@@H]1c1nc2c(F)cccc2s1 [Example 1875, (R)-(5-(2,4-difluorophenyl)-1,3,4-oxadiazol-2-yl)(4-(4-fluorobenzo[d]thiazol-2-yl)-6,7-dihydro-1H-imidazo[4,5-c]pyridin-5(4H)-yl)methanone] | 1000 to 5000
O=C(c1cn(CC(F)(F)F)nc1Cl)N1CCc2[nH]cnc2[C@@H]1c1nc2c(F)cccc2s1 [Example 1763, (R)-(3-chloro-1-(2,2,2-trifluoroethyl)-1H-pyrazol-4-yl)(4-(4-fluorobenzo[d]thiazol-2-yl)-6,7-dihydro-1H-imidazo[4,5-c]pyridin-5(4H)-yl)methanone] | 1000 to 5000
O=C(c1nc(Cl)cs1)N1CCc2[nH]cnc2[C@H]1c1nc2ccccc2[nH]1 [Example 917, (S)-(4-(1H-benzo[d]imidazol-2-yl)-6,7-dihydro-1H-imidazo[4,5-c]pyridin-5(4H)-yl)(4-chlorothiazol-2-yl)methanone] | 500 to 1000
Cc1nn(C)c(C)c1-c1ncc(C(=O)N2CCc3[nH]cnc3[C@H]2c2nc3ccccc3s2)s1 [Example 1405] | < 500
Cn1nc(CF)cc1C(=O)N1CCc2[nH]cnc2[C@H]1c1nc2c(F)cccc2s1 [Example 1917, (S)-(4-(4-fluorobenzo[d]thiazol-2-yl)-6,7-dihydro-1H-imidazo[4,5-c]pyridin-5(4H)-yl)(3-(fluoromethyl)-1-methyl-1H-pyrazol-5-yl)methanone] | 500 to 1000
Cc1nc(-c2ccccn2)oc1C(=O)N1CCc2[nH]cnc2[C@@H]1c1nc2ccccc2s1 [Example 1372, (R)-(4-(benzo[d]thiazol-2-yl)-6,7-dihydro-1H-imidazo[4,5-c]pyridin-5(4H)-yl)(4-methyl-2-(pyridin-2-yl)oxazol-5-yl)methanone] | > 5000
O=C(c1oc(/C=C/C2CC2)nc1C(F)(F)F)N1CCc2[nH]cnc2[C@@H]1c1nc2ccccc2s1 [Example 1568, (R,E)-(4-(benzo[d]thiazol-2-yl)-6,7-dihydro-1H-imidazo[4,5-c]pyridin-5(4H)-yl)(2-(2-cyclopropylvinyl)-4-(trifluoromethyl)oxazol-5-yl)methanone] | 1000 to 5000
O=C(CCc1nccs1)N1CCc2[nH]cnc2[C@H]1c1ncc(Br)s1 [Example 2148] | 1000 to 5000
O=C(c1cn[nH]c1C(F)F)N1CCc2[nH]cnc2[C@H]1c1nc2ccccc2s1 [Example 1857] | < 500
CN(C)CCc1nc(C(F)(F)F)c(C(=O)N2CCc3[nH]cnc3[C@H]2c2nc3ccccc3s2)o1 [Example 1581] | < 500

Same assay, conditions: A375 cells expressing human R408W PAH; 24 hrs with compound; 13C-Tyrosine by LC-MS; average where tested multiple times; read-out: AC50

Compound | AC50 [nM]
O=C(c1oc(-c2ccccn2)nc1C1CC1)N1CCCc2[nH]cnc2C1c1nc2ccccc2[nH]1 (stereo not shown) | 1000 to 5000
CN(C)Cc1nc(C(=O)N2CCc3[nH]cnc3C2c2nc3ccccc3s2)no1 (stereo not shown) | > 5000
Cn1nc(C(C)(C)O)nc1C(=O)N1CCc2[nH]cnc2C1c1nc2c(F)cccc2s1 (stereo not shown) | > 5000
Cc1nc(CCC2CC2)oc1C(=O)N1CCCc2[nH]cnc2C1c1nc2ccccc2s1 (stereo not shown) | > 5000
O=C(Cc1ncc(-c2ccccc2)s1)N1CCc2[nH]cnc2C1c1nc2ccccc2s1 (stereo not shown) | > 5000
CN(C)CCn1cc(C(=O)N2CCc3[nH]cnc3C2c2nc3ccccc3s2)c(C#N)n1 (stereo not shown) | 1000 to 5000
O=C(c1nnc(CCC(F)(F)F)o1)N1CCc2[nH]cnc2C1c1nc2ccccc2s1 (stereo not shown) | > 5000
O=C(c1cnsc1)N1CCc2[nH]cnc2[C@H]1c1nc2ccccc2[nH]1 [(S)-(4-(1H-benzo[d]imidazol-2-yl)-1,4,6,7-tetrahydro-5H-imidazo[4,5-c]pyridin-5-yl)(isothiazol-4-yl)methanone] | 1000 to 5000
O=C(c1ncc(Cl)s1)N1CCc2[nH]cnc2C1c1nc2ccc(Cl)cc2[nH]1 (stereo not shown) | > 5000
